Measurements taken from publication PMC5904360, “Soluble N-Ethylmaleimide-Sensitive Factor Attachment Protein Receptor-Derived Peptides for Regulation of Mast Cell Degranulation” (Frontiers in Immunology, 2018).

Columns and labels:
[1] = target: T1, SN23-Syn4-Vp8 SNARE complex (Rattus norvegicus, UniProt O70377+Q08850+Q9WUF4); assay: SNARE-driven membrane fusion (total lipid mixing) assay with proteoliposomes; assay type: biochemical; conditions: for inhibition of membrane fusion (lipid mixing): inhibitor applied to T-vesicles, T:V 9:1, 37°C, NBD dequenching, Vp2S/Vp8S at 10 µM, three independent experiments (Figure 3B-D); for inhibition of membrane fusion, peptide added before preincubation: peptide added before preincubation of T- and V-liposomes at 4°C overnight (Figure 4A)
T1 construct: Syn4 (amino acids 1–298); SNAP-23 (amino acids 1–210); VAMP8 (amino acids 1–100); GST (N, cleaved yes); made in house; host or cells: Escherichia coli Rosetta(DE3)pLysS
T1 sequence (Q08850 1-298): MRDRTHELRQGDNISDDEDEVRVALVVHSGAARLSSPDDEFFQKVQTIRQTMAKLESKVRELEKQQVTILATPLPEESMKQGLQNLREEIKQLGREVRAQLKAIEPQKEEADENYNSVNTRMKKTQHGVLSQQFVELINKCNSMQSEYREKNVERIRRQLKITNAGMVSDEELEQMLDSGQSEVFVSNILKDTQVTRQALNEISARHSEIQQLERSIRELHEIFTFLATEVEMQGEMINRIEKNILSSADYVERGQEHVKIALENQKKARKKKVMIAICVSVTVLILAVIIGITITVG
T1 sequence (O70377 1-210): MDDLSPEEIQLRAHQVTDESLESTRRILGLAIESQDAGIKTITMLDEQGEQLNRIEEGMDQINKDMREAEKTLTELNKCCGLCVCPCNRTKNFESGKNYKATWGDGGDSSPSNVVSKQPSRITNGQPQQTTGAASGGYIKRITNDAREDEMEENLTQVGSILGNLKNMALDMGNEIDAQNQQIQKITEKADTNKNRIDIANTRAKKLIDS
T1 sequence (Q9WUF4 1-100): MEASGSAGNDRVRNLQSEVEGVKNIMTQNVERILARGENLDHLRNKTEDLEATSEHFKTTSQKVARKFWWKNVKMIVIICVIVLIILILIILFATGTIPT
Excerpt: Total RNA was obtained from RBL-2H3 cells using TRIzol® Reagent (#15596026, Invitrogen, Carlsbad, CA, USA) and served as a template for cDNA synthesis with M-MLV reverse transcriptase (M1705, Promega, Madison, WI, USA) according to the manufacturer’s protocol. The cDNAs amplified for rat Syn4, SNAP-23, VAMP2, VAMP4, VAMP7, and VAMP8 using each primer pair ([4]), were cloned into the pGEX-4T 1 vector. The mast cell SNARE proteins [Syn4 (amino acids 1–298), SNAP-23 (amino acids 1–210), full-length VAMP2 (VpF, amino acids 1–116), VAMP4 (amino acids 1–141), and VAMP8 (amino acids 1–100)] were expressed in Escherichia coli Rosetta(DE3)pLysS (#70956, Novagen, Darmstadt, Germany) and purified as glutathione-S-transferase-tagged fusion proteins as reported previously ([8]).
To prepare the unilamellar liposomes, a 50-mM lipid mixture of palmitoyl-2-oleoylphosphatidylcholine (POPC) (#850457, Avanti Polar Lipids, Alabaster, AL, USA):1,2-dioleoyl-phosphatidylserine (DOPS) (#840035, Avanti Polar Lipids) at 65:35 mol% was dried in a glass tube under a gentle stream of nitrogen gas and then exposed to a vacuum overnight. The resultant lipid film was resuspended in dialysis buffer (25 mM HEPES and 100 mM KCl, pH 7.4) by vortexing, followed by an extrusion step with polycarbonate membrane filters having a pore size of 100 nm (#610005, Avanti Polar Lipids). To prepare proteoliposomes, binary T-SNAREs, which were pre-formed by mixing Syn4 and SNAP-23 at room temperature for 60 min, were incubated with 50 mM unilamellar liposomes for 15 min at the same temperature, resulting in a 50:1 lipid/protein molar ratio ([9]).
For the preparation of V-SNARE proteoliposomes, a 10-mM premixed lipid solution [POPC:DOPS:N-(7-nitro-2-1,3-benzoxadiazol-4-yl (NBD))-phosphatidylserine (#810198, Avanti Polar Lipids):[…] (#810150, Avanti Polar Lipids) = 62:35:1.5:1.5 (molar ratio)] was used for the preparation of fluorescent liposomes in the same manner as above. The prepared liposomes were then mixed with VAMP2 for 15 min at room temperature. The liposome/protein mixture was diluted twice to bring the concentration of n-octyl glucoside (O8001, Sigma-Aldrich) below the critical micelle concentration. After overnight dialysis against 1L dialysis buffer at 4°C to remove the detergent, SM-2 bio-beads (#1523920, Bio-Rad Laboratories, Hercules, CA, USA) were added to the sample to remove any remaining n-octyl glucoside. The solution was then centrifuged at 10,000 × g to remove the protein/lipid aggregates, and the final lipid concentrations of both the T- and V-liposomes were adjusted to 1 mM with a lipid-to-protein ratio of 50:1.
A total lipid mixing assay using the T- and V-liposomes was performed as described previously with minor modifications ([8]). Briefly, peptide inhibitors were applied to the T-vesicles at the indicated concentrations and then the T-vesicles were mixed with the V-vesicles in a 384-well plate for the initiation of fusion, with a T- to V-vesicle volume ratio of 9:1. The fusion was monitored using the dequenching of NBD fluorescence signal (excitation 465 nm/emission 530 nm). After at least 80 min of fusion, the maximum NBD signal was obtained by adding 0.1% Triton X-100™. All the lipid-mixing experiments were performed at 37°C.

RBL-2H3 mast cells = assay: Degranulation assay, β-hexosaminidase release; assay type: cell-based, rat; conditions: for reduction of β-hexosaminidase release: 10 µM PTD-fused peptide without SLO (LY294002 as positive control), DNP-BSA stimulation, no A23187 pretreatment, three independent experiments (Figure 2A gray bars, 2C); for inhibition of mast cell degranulation with versus without A23187 pretreatment: PTD-conjugated peptides, read-outs β-hexosaminidase and histamine (Figure 4B); for inhibition of β-hexosaminidase release after A23187 pretreatment: cells pretreated with A23187, sensitized with DNP-IgE, then PTD-conjugated peptide (Figure 4B)

Sequence | inhibition of membrane fusion (lipid mixing) [1] | inhibition of membrane fusion, peptide added before preincubation [1] | reduction of β-hexosaminidase release (RBL-2H3 mast cells) | inhibition of mast cell degranulation with versus without A23187 pretreatment (RBL-2H3 mast cells) | inhibition of β-hexosaminidase release after A23187 pretreatment (RBL-2H3 mast cells)
LQSEVEGVKNIMTQNVE [Vp8N, 17-mer peptide, N-terminal region of VAMP8 SNARE motif] | specific to the SN23-Syn4-Vp8 complex | inhibited the membrane fusion driven only by their cognate SNARE complexes | 30–40% | inhibited mast cell degranulation more efficiently than without pretreatment | inhibited both histamine and β-hexosaminidase release
EDEMEENLTQVGSILGN [SC23N, 17-mer peptide, N-terminal region of SNAP-23 SNARE motif SC23] | inhibited membrane fusion by both the SN23-Syn4-Vp2 and SN23-Syn4-Vp8 complexes | inhibited the membrane fusion induced by both SN23-Syn4-Vp2 and SN23-Syn4-Vp8 | – | inhibited mast cell degranulation more efficiently than without pretreatment | –
SARHSEIQQLERTIREL [Syn4N, 17-mer peptide, N-terminal region of syntaxin 4 SNARE motif] | inhibited membrane fusion by both the SN23-Syn4-Vp2 and SN23-Syn4-Vp8 complexes | inhibited the membrane fusion induced by both SN23-Syn4-Vp2 and SN23-Syn4-Vp8 | 30–40% | inhibited mast cell degranulation more efficiently than without pretreatment | inhibited both histamine and β-hexosaminidase release
